Measured values as given in PMC12582985, “Preparation and characterization of renal cell peptides from fetal rats for their antitumor activity” (FEBS Open Bio, 2025).

What was measured:
Hela cells = assay: CCK‐8 cell viability assay, Hela; type: cell-based, human; settings: CCK‐8, 48 h, triplicate; peptides 5–45 μg·mL^−1; 5‐FU positive control 0.1–5 mM; vs negative control
From the text: (§1) Human breast cancer MCF‐7 (RRID:CVCL_0031), human lung cancer A549 (RRID:CVCL_0023), human colon cancer HCT‐116 (RRID:CVCL_0291), human cervical cancer Hela (RRID:CVCL_0030), human hepatoma HepG2 (RRID:CVCL_0027), human gastric cancer SGC‐7901 (RRID:CVCL_0520) and human non‐tumor mamma gland epithelial MCF‐10A (RRID:CVCL_0598) and transformed human liver epithelial‐2 (THLE‐2) (RRID:CVCL_3803) cells were obtained from Shanghai Donghuan Biotechnology (Shanghai, China). All cell lines had been authenticated in the past 3 years and again within 4 months after completion of the experiments. All cell lines had been tested for mycoplasma contamination frequently. Their identities were characterized by short tandem repeat analysis. All of these cell lines were cultured in high glucose Dulbecco's modified Eagle's medium supplemented by 10% fetal bovine serum, 100 units·mL^−1 penicillin and 100 μg·mL^−1 streptomycin (complete culture medium).
(§2) MCF‐7 cells (1 × 10^4 cells per well) were treated in triplicate with different doses of each type of RC extract in 96‐well plates for varying time periods. The negative control cells were treated with the diluent of physiological saline, whereas positive control cells were treated with different concentrations (0.1–5 mM) of 5‐fluorouracil (5‐FU) (Leica, Wetzlar, Germany). During the last hour of culture, each well of cells was treated with 10 μL of CCK‐8 solution. The absorbance of the supernatants of individual wells was measured at 450 nm using a microplate reader. Similarly, the effect of different synthesized RCPs (5–45 μg·mL^−1) on the viability of different types of human cancer cells was tested with CCK‐8 assays using the diluent of physiological saline containing the same concentration of dimethylsulfoxide as a negative control and the same concentrations of 5‐FU as the positive controls. Ten RCPs with a predicted strong bioactivity were synthesized by GenScript ([…]) and their purity, sequences and solubility are shown in Table 1. […] The formula used to calculate the cytotoxicity rate of each concentration of RCP was: Cytotoxicity rate (%) = (absorbance value of the control group − absorbance value of the experimental group)/absorbance value of the control group × 100%. In addition, MCF‐7 cells were treated with each type of RCP at 45 μg·mL^−1 for 12–72 h and the dynamic impact of RCP treatment on the viability of MCF‐7 cells was determined every 12 h using CCK‐8 assays.
(§3) Data are expressed as the mean ± SEM. The data distribution was analyzed by Shapiro–Wilk test. The IC50 values of each peptide for individual cell lines were determined using the PRISM, version 8 (GraphPad Software Inc.). Briefly, all dose–response data were converted into […], which were automatically analyzed by PRISM for non‐linear regression to determine and report the IC50 and its SD for each peptide in a specific cell line. The difference among groups was analyzed by analysis of variance and post‐hoc Tukey's tests and the comparison between groups was performed using Student's t‐test and PRISM, version 8 (GraphPad Software Inc.). P < 0.05 was considered statistically significant.

SGC‐7901 cells = assay: CCK‐8 cell viability assay, SGC‐7901; type: cell-based, human; settings: CCK‐8, 48 h, triplicate; peptides 5–45 μg·mL^−1; 5‐FU positive control 0.1–5 mM; vs negative control
From the text: as §1, §2, §3

THLE‐2 cells = assay: CCK‐8 cell viability assay, non‐tumor THLE‐2; type: cell-based, human; settings: CCK‐8, 48 h, triplicate; peptides 5–45 μg·mL^−1; 5‐FU positive control 0.1–5 mM; vs negative control
From the text: as §1, §2, §3

MCF‐10A cells = assay: CCK‐8 cell viability assay, non‐tumor MCF‐10A; type: cell-based, human; settings: CCK‐8, 48 h, triplicate; peptides 5–45 μg·mL^−1; 5‐FU positive control 0.1–5 mM; vs negative control
From the text: as §1, §2, §3

[1] = Solubility of the synthesized peptides; type: physicochemical; settings: for Solubility: solvent given for the synthesized peptide (GenScript); for aqueous solubility: in words
[2] = system: cancer cells (MCF‐7, A549, HCT‐116, Hela, HepG2, SGC‐7901) vs non‐tumor MCF‐10A and THLE‐2 cells; assay: CCK‐8 cytotoxicity, preference for cancer cells over non‐tumor cells; type: cell-based, human; parameters: cytotoxicity against non‐tumor MCF‐10A and THLE‐2 cells compared with tumor cell lines: dose or concentration left out as unconfirmed; settings: for preference of cytotoxicity for cancer cells over non‐tumor cells: 5–45 μg·mL^−1, 48 h, CCK‐8; for cytotoxicity against non‐tumor MCF‐10A and THLE‐2 cells compared with tumor cell lines: 48 h, P < 0.05 or P < 0.01
From the text: as §1, §2, §3

HCT‐116 cells = assay: CCK‐8 cell viability assay, HCT‐116; type: cell-based, human; settings: CCK‐8, 48 h, triplicate; peptides 5–45 μg·mL^−1; 5‐FU positive control 0.1–5 mM; vs negative control
From the text: as §1, §2, §3

MCF‐7 cells = assay: CCK‐8 cell viability assay, MCF‐7; type: cell-based, human; settings: for dynamic cytotoxicity against MCF‐7 cells: 45 μg·mL^−1, 12–72 h, CCK‐8 every 12 h, maintained at highest levels to 72 h
From the text: as §1, §2, §3

HepG2 cells = assay: CCK‐8 cell viability assay, HepG2; type: cell-based, human; settings: CCK‐8, 48 h, triplicate; peptides 5–45 μg·mL^−1; 5‐FU positive control 0.1–5 mM; vs negative control
From the text: as §1, §2, §3

A549 cells = assay: CCK‐8 cell viability assay, A549; type: cell-based, human; settings: CCK‐8, 48 h, triplicate; peptides 5–45 μg·mL^−1; 5‐FU positive control 0.1–5 mM; vs negative control
From the text: as §1, §2, §3

[3] = CCK‐8, 48 h, triplicate, peptides 5–45 μg·mL^−1, 5‐FU positive control 0.1–5 mM, vs negative control

## GIYAPDSPRAF [RCP‐8, synthesized 11‐mer renal cell peptide from Vanin 1, protamex‐digested]
Hela cells
  viability of Hela cells: decreased the viability
SGC‐7901 cells
  viability of SGC‐7901 cells: decreased the viability
THLE‐2 cells
  viability of non‐tumor THLE‐2 cells: decreased the viability
MCF‐10A cells
  viability of non‐tumor MCF‐10A cells: decreased the viability
[1]
  Solubility: 0.1% Dimethylsulfoxide
[2]
  preference of cytotoxicity for cancer cells over non‐tumor cells: did not preferably decrease the viability of tumor cells
HCT‐116 cells
  viability of HCT‐116 cells: decreased the viability
MCF‐7 cells; [3]
  viability of MCF‐7 cells: decreased the viability
HepG2 cells
  viability of HepG2 cells: decreased the viability
A549 cells
  viability of A549 cells: decreased the viability

## EWLKVPCLSTRLINPENMGF [RCP‐6, synthesized 20‐mer renal cell peptide from Sacsin molecular chaperone, trypsin digested]
Hela cells
  viability of Hela cells: significantly decreased the viability
SGC‐7901 cells
  viability of SGC‐7901 cells: significantly decreased the viability
THLE‐2 cells
  viability of non‐tumor THLE‐2 cells: only treatment with the highest doses of them slightly reduced the viability
MCF‐10A cells
  viability of non‐tumor MCF‐10A cells: only treatment with the highest doses of them slightly reduced the viability
[1]
  aqueous solubility: low aqueous solubility
  Solubility: 0.1% Dimethylsulfoxide
[2]
  preference of cytotoxicity for cancer cells over non‐tumor cells: potent cytotoxicity preferably against cancer cells
  cytotoxicity against non‐tumor MCF‐10A and THLE‐2 cells compared with tumor cell lines: statistically lower than tumor cell lines
HCT‐116 cells
  viability of HCT‐116 cells: significantly decreased the viability
MCF‐7 cells
  dynamic cytotoxicity against MCF‐7 cells: increased with time from 12 h post treatment to 48 h
MCF‐7 cells; [3]
  viability of MCF‐7 cells: significantly decreased the viability
HepG2 cells
  viability of HepG2 cells: significantly decreased the viability
A549 cells
  viability of A549 cells: significantly decreased the viability

## VCMRVCRTWSRWCYDKRLWP [RCP‐5, synthesized 20‐mer renal cell peptide from F‐box and leucine‐rich repeat protein 19, trypsin digested]
Hela cells
  viability of Hela cells: significantly decreased the viability
SGC‐7901 cells
  viability of SGC‐7901 cells: significantly decreased the viability
THLE‐2 cells
  viability of non‐tumor THLE‐2 cells: only treatment with the highest doses of them slightly reduced the viability
MCF‐10A cells
  viability of non‐tumor MCF‐10A cells: only treatment with the highest doses of them slightly reduced the viability
[1]
  aqueous solubility: low aqueous solubility
  Solubility: 0.1% Dimethylsulfoxide
[2]
  preference of cytotoxicity for cancer cells over non‐tumor cells: potent cytotoxicity preferably against cancer cells
  cytotoxicity against non‐tumor MCF‐10A and THLE‐2 cells compared with tumor cell lines: statistically lower than tumor cell lines
HCT‐116 cells
  viability of HCT‐116 cells: significantly decreased the viability
MCF‐7 cells
  dynamic cytotoxicity against MCF‐7 cells: increased with time from 12 h post treatment to 48 h
MCF‐7 cells; [3]
  viability of MCF‐7 cells: significantly decreased the viability
HepG2 cells
  viability of HepG2 cells: significantly decreased the viability
A549 cells
  viability of A549 cells: significantly decreased the viability

## SSGCPPLPPRRGAPAGWLSH [RCP‐2, synthesized 20‐mer renal cell peptide from Brain‐derived neurotrophic factor, trypsin digested]
Hela cells
  viability of Hela cells: decreased the viability
SGC‐7901 cells
  viability of SGC‐7901 cells: decreased the viability
THLE‐2 cells
  viability of non‐tumor THLE‐2 cells: decreased the viability
MCF‐10A cells
  viability of non‐tumor MCF‐10A cells: decreased the viability
[1]
  Solubility: Water, pH 7.0
[2]
  preference of cytotoxicity for cancer cells over non‐tumor cells: did not preferably decrease the viability of tumor cells
HCT‐116 cells
  viability of HCT‐116 cells: decreased the viability
MCF‐7 cells; [3]
  viability of MCF‐7 cells: decreased the viability
HepG2 cells
  viability of HepG2 cells: decreased the viability
A549 cells
  viability of A549 cells: decreased the viability

## PAPPKPEPK [RCP‐9, synthesized 9‐mer renal cell peptide from Non‐histone chromosomal protein HMG‐17, trypsin digested]
Hela cells
  viability of Hela cells: decreased the viability
SGC‐7901 cells
  viability of SGC‐7901 cells: decreased the viability
THLE‐2 cells
  viability of non‐tumor THLE‐2 cells: decreased the viability
MCF‐10A cells
  viability of non‐tumor MCF‐10A cells: decreased the viability
[1]
  Solubility: Water, pH 7.0
[2]
  preference of cytotoxicity for cancer cells over non‐tumor cells: did not preferably decrease the viability of tumor cells
HCT‐116 cells
  viability of HCT‐116 cells: decreased the viability
MCF‐7 cells; [3]
  viability of MCF‐7 cells: decreased the viability
HepG2 cells
  viability of HepG2 cells: decreased the viability
A549 cells
  viability of A549 cells: decreased the viability

## RFFESFGDL [RCP‐7, synthesized 9‐mer renal cell peptide from GLOBIN domain‐containing protein, protamex‐digested]
Hela cells
  viability of Hela cells: decreased the viability
SGC‐7901 cells
  viability of SGC‐7901 cells: decreased the viability
THLE‐2 cells
  viability of non‐tumor THLE‐2 cells: decreased the viability
MCF‐10A cells
  viability of non‐tumor MCF‐10A cells: decreased the viability
[1]
  Solubility: 0.1% Dimethylsulfoxide
[2]
  preference of cytotoxicity for cancer cells over non‐tumor cells: did not preferably decrease the viability of tumor cells
HCT‐116 cells
  viability of HCT‐116 cells: decreased the viability
MCF‐7 cells; [3]
  viability of MCF‐7 cells: decreased the viability
HepG2 cells
  viability of HepG2 cells: decreased the viability
A549 cells
  viability of A549 cells: decreased the viability

## FAGDDAPR [RCP‐4, synthesized 8‐mer renal cell peptide from Actin, cytoplasmic 2, trypsin digested]
Hela cells
  viability of Hela cells: decreased the viability
SGC‐7901 cells
  viability of SGC‐7901 cells: decreased the viability
THLE‐2 cells
  viability of non‐tumor THLE‐2 cells: decreased the viability
MCF‐10A cells
  viability of non‐tumor MCF‐10A cells: decreased the viability
[1]
  Solubility: Water, pH 7.0
[2]
  preference of cytotoxicity for cancer cells over non‐tumor cells: did not preferably decrease the viability of tumor cells
HCT‐116 cells
  viability of HCT‐116 cells: decreased the viability
MCF‐7 cells; [3]
  viability of MCF‐7 cells: decreased the viability
HepG2 cells
  viability of HepG2 cells: decreased the viability
A549 cells
  viability of A549 cells: decreased the viability

## O=c1[nH]cc(F)c(=O)[nH]1 [5‐FU, 5‐fluorouracil, reference compound]
Hela cells
  viability of Hela cells: significantly decreased the viability
SGC‐7901 cells
  viability of SGC‐7901 cells: significantly decreased the viability
THLE‐2 cells
  viability of non‐tumor THLE‐2 cells: significantly decreased the viability
MCF‐10A cells
  viability of non‐tumor MCF‐10A cells: significantly decreased the viability
HCT‐116 cells
  viability of HCT‐116 cells: significantly decreased the viability
MCF‐7 cells; [3]
  viability of MCF‐7 cells: significantly decreased the viability
MCF‐7 cells; RC extract experiment, positive control 0.1–5 mM, dose‐dependent, P < 0.01
  viability of MCF‐7 cells: significantly reduced the viability
HepG2 cells
  viability of HepG2 cells: significantly decreased the viability
A549 cells
  viability of A549 cells: significantly decreased the viability
